Source: PubChem BioAssay (NCI)
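Results reflect a 48-hour exposure of cells in 96-well plates to compound at five concentrations. TGI marks complete inhibition of growth.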

Tests used:
Experiment in all cases: growth of human tumour cells (NCI), 48 h
RPMI-8226 leukemia = test system: RPMI-8226 leukemia
MDA-N = test system: MDA-N
UACC-62 melanoma = test system: UACC-62 melanoma
SK-MEL-5 melanoma = test system: SK-MEL-5 melanoma
SF-295 CNS = test system: SF-295 CNS
PC-3 prostate = test system: PC-3 prostate
TK-10 renal = test system: TK-10 renal
OVCAR-8 ovarian = test system: OVCAR-8 ovarian
K-562 leukemia = test system: K-562 leukemia
MDA-MB-435 = test system: MDA-MB-435
SW-620 colon = test system: SW-620 colon
HCT-116 colon = test system: HCT-116 colon
A549 NSCLC = test system: A549 NSCLC
SK-OV-3 ovarian = test system: SK-OV-3 ovarian
HT29 colon = test system: HT29 colon
T-47D breast = test system: T-47D breast
OVCAR-4 ovarian = test system: OVCAR-4 ovarian
SNB-19 CNS = test system: SNB-19 CNS
HCC-2998 colon = test system: HCC-2998 colon
SF-539 CNS = test system: SF-539 CNS
NCI-H522 lung = test system: NCI-H522 lung
IGROV1 ovarian = test system: IGROV1 ovarian
HS 578T breast = test system: HS 578T breast
M14 melanoma = test system: M14 melanoma
CCRF-CEM leukemia = test system: CCRF-CEM leukemia
MDA-MB-231 breast = test system: MDA-MB-231 breast
SK-MEL-28 melanoma = test system: SK-MEL-28 melanoma
U251 CNS = test system: U251 CNS
786-0 renal = test system: 786-0 renal
SNB-75 CNS = test system: SNB-75 CNS
HOP-62 NSCLC = test system: HOP-62 NSCLC
HL-60(TB) leukemia = test system: HL-60(TB) leukemia
NCI-H23 lung = test system: NCI-H23 lung
UO-31 renal = test system: UO-31 renal
DU-145 prostate = test system: DU-145 prostate
MOLT-4 leukemia = test system: MOLT-4 leukemia
UACC-257 melanoma = test system: UACC-257 melanoma
EKVX NSCLC = test system: EKVX NSCLC
RXF 393 renal = test system: RXF 393 renal
KM12 colon = test system: KM12 colon
NCI-H226 lung = test system: NCI-H226 lung
ACHN renal = test system: ACHN renal
SF-268 CNS = test system: SF-268 CNS
NCI/ADR-RES ovarian = test system: NCI/ADR-RES ovarian
NCI-H460 lung = test system: NCI-H460 lung
MCF7 breast = test system: MCF7 breast
HCT-15 colon = test system: HCT-15 colon
SR leukemia = test system: SR leukemia
OVCAR-3 ovarian = test system: OVCAR-3 ovarian
BT-549 breast = test system: BT-549 breast
SN12C renal = test system: SN12C renal
COLO 205 colon = test system: COLO 205 colon
CAKI-1 renal = test system: CAKI-1 renal
MALME-3M melanoma = test system: MALME-3M melanoma
SK-MEL-2 melanoma = test system: SK-MEL-2 melanoma
LOX IMVI melanoma = test system: LOX IMVI melanoma
A498 renal = test system: A498 renal
OVCAR-5 ovarian = test system: OVCAR-5 ovarian
HOP-92 NSCLC = test system: HOP-92 NSCLC

COc1ccc(N2C(=O)C3c4[nH]c5cc(Cl)ccc5c4C4CCC(C(C)(C)C)CC4C3C2=O)cc1 (stereo unspecified) was tested, and the TGI (RPMI-8226 leukemia) was > 100 µM, the TGI (MDA-N) was > 100 µM and the TGI (UACC-62 melanoma) was > 100 µM. For the same molecule, the TGI (SK-MEL-5 melanoma) was > 100 µM, the TGI (SF-295 CNS) was > 100 µM and the TGI (PC-3 prostate) was > 100 µM. For the same molecule, the TGI (TK-10 renal) was > 100 µM, the TGI (OVCAR-8 ovarian) was > 100 µM and the TGI (K-562 leukemia) was > 100 µM. The TGI (MDA-MB-435) was > 100 µM, the TGI (SW-620 colon) was > 100 µM and the TGI (HCT-116 colon) was > 100 µM. For the same molecule, the TGI (A549 NSCLC) was > 100 µM, the TGI (SK-OV-3 ovarian) was > 100 µM and the TGI (HT29 colon) was > 100 µM. For the same molecule, the TGI (T-47D breast) was > 100 µM, the TGI (OVCAR-4 ovarian) was > 100 µM and the TGI (SNB-19 CNS) was > 100 µM. The TGI (HCC-2998 colon) was > 100 µM, the TGI (SF-539 CNS) was > 100 µM and the TGI (NCI-H522 lung) was > 100 µM. For the same molecule, the TGI (IGROV1 ovarian) was > 100 µM, the TGI (HS 578T breast) was > 100 µM and the TGI (M14 melanoma) was > 100 µM. The TGI (CCRF-CEM leukemia) was > 100 µM, the TGI (MDA-MB-231 breast) was > 100 µM and the TGI (SK-MEL-28 melanoma) was > 100 µM. The TGI (U251 CNS) was > 100 µM, the TGI (786-0 renal) was > 100 µM and the TGI (SNB-75 CNS) was > 100 µM. The TGI (HOP-62 NSCLC) was > 100 µM, the TGI (HL-60(TB) leukemia) was 69.4 µM and the TGI (NCI-H23 lung) was > 100 µM. The TGI (UO-31 renal) was > 100 µM, the TGI (DU-145 prostate) was > 100 µM and the TGI (MOLT-4 leukemia) was > 100 µM. For the same molecule, the TGI (UACC-257 melanoma) was > 100 µM, the TGI (EKVX NSCLC) was > 100 µM and the TGI (RXF 393 renal) was > 100 µM. The TGI (KM12 colon) was > 100 µM, the TGI (NCI-H226 lung) was > 100 µM and the TGI (ACHN renal) was > 100 µM. For the same molecule, the TGI (SF-268 CNS) was > 100 µM, the TGI (NCI/ADR-RES ovarian) was > 100 µM and the TGI (NCI-H460 lung) was > 100 µM. For the same molecule, the TGI (MCF7 breast) was > 100 µM, the TGI (HCT-15 colon) was > 100 µM and the TGI (SR leukemia) was 43.6 µM. For the same molecule, the TGI (OVCAR-3 ovarian) was > 100 µM, the TGI (BT-549 breast) was > 100 µM and the TGI (SN12C renal) was > 100 µM. For the same molecule, the TGI (COLO 205 colon) was > 100 µM.

COCN1C(=O)[C@@H]2CCCN2C(=O)c2cc(Cl)ccc21 was tested, and the TGI (CAKI-1 renal) was > 100 µM, the TGI (MALME-3M melanoma) was > 100 µM and the TGI (RPMI-8226 leukemia) was > 100 µM. The TGI (MDA-N) was > 100 µM, the TGI (UACC-62 melanoma) was > 100 µM and the TGI (SK-MEL-5 melanoma) was > 100 µM. The TGI (SF-295 CNS) was > 100 µM, the TGI (PC-3 prostate) was > 100 µM and the TGI (TK-10 renal) was > 100 µM. For the same molecule, the TGI (OVCAR-8 ovarian) was > 100 µM, the TGI (K-562 leukemia) was > 100 µM and the TGI (MDA-MB-435) was > 100 µM. For the same molecule, the TGI (SW-620 colon) was > 100 µM, the TGI (HCT-116 colon) was > 100 µM and the TGI (A549 NSCLC) was > 100 µM. For the same molecule, the TGI (SK-OV-3 ovarian) was > 100 µM, the TGI (HT29 colon) was > 100 µM and the TGI (T-47D breast) was > 100 µM. For the same molecule, the TGI (OVCAR-4 ovarian) was > 100 µM, the TGI (SNB-19 CNS) was > 100 µM and the TGI (HCC-2998 colon) was > 100 µM. The TGI (NCI-H522 lung) was > 100 µM, the TGI (IGROV1 ovarian) was > 100 µM and the TGI (HS 578T breast) was > 100 µM. For the same molecule, the TGI (M14 melanoma) was > 100 µM, the TGI (MDA-MB-231 breast) was > 100 µM and the TGI (SK-MEL-28 melanoma) was > 100 µM. The TGI (U251 CNS) was > 100 µM, the TGI (786-0 renal) was > 100 µM and the TGI (SNB-75 CNS) was > 100 µM. For the same molecule, the TGI (HOP-62 NSCLC) was > 100 µM, the TGI (NCI-H23 lung) was > 100 µM and the TGI (UO-31 renal) was > 100 µM. For the same molecule, the TGI (DU-145 prostate) was > 100 µM, the TGI (SK-MEL-2 melanoma) was > 100 µM and the TGI (MOLT-4 leukemia) was > 100 µM. The TGI (UACC-257 melanoma) was > 100 µM, the TGI (LOX IMVI melanoma) was > 100 µM and the TGI (EKVX NSCLC) was > 100 µM. For the same molecule, the TGI (RXF 393 renal) was > 100 µM, the TGI (KM12 colon) was > 100 µM and the TGI (A498 renal) was > 100 µM. The TGI (OVCAR-5 ovarian) was > 100 µM, the TGI (ACHN renal) was > 100 µM and the TGI (SF-268 CNS) was > 100 µM. For the same molecule, the TGI (NCI/ADR-RES ovarian) was > 100 µM, the TGI (NCI-H460 lung) was > 100 µM and the TGI (MCF7 breast) was > 100 µM. The TGI (HCT-15 colon) was > 100 µM, the TGI (HOP-92 NSCLC) was > 100 µM and the TGI (SR leukemia) was > 100 µM. The TGI (BT-549 breast) was > 100 µM, the TGI (SN12C renal) was > 100 µM and the TGI (COLO 205 colon) was > 100 µM.
